Experimental findings from PubChem BioAssay AID1626 (SRMLSC, 2009) are described below.

For the experiment, the system named is M. tuberculosis H37Rv growth inhibition. Put plainly: M. tuberculosis H37Rv growth inhibitors, H37Rv strain (AID 1626). As to conditions: for IC90: measured here: IC90 against H37Rv; for CC50: measured here: Vero cell cytotoxicity.

Broadly, the IC50 is the concentration that inhibits the measured activity by half. Broadly, the IC90 is the point of the concentration-response curve where the effect stands at 90%. What is called CC50 is the concentration that lowers cell viability or growth by half. A low value points to greater toxicity to the cells. Take `O=C(Nc1nccs1)c1sc2ccccc2c1Cl`: the IC50 was 15.1 µM, the IC90 is above 100 µM and the CC50 is above 40 µM.

Turning to `O=C(Nc1ccc(OC(F)(F)F)cc1)N1CCN(c2ccnc3cc(Cl)ccc23)CC1`, the 50% inhibitory concentration (IC50) is 3.08 µM, the IC90 worked out at 3.51 µM and the CC50 was 8.59 µM.

With `O=C(Nc1cc(Cl)cc(Cl)c1)N1CCCC1`, the 50% inhibitory concentration (IC50) is 12.2 µM, the IC90 came out at 17.6 µM and the half-maximal cytotoxic concentration (CC50) was above 40 µM.

As for `COc1ccccc1/C=C/C(=O)c1ccc(NC(C)=O)cc1`, the CC50 worked out at 22.8 µM.

`Cc1nn2c(N3CCN(C)CC3)cc(C(C)(C)C)nc2c1-c1ccccc1`: the IC50 was 3.03 µM, the IC90 worked out at 4.55 µM and the CC50 came to 25.3 µM.

`CCCCCCCCOC(=O)c1c(CSC(=N)N)n(C)c2cc(Br)c(OC(C)=O)cc12`: the half-maximal inhibitory concentration (IC50) was 11.4 µM and the concentration for an effect of 90% (IC90) came to 15 µM.

For `O=C(CSc1ccc(-c2ccccn2)nn1)c1ccc(F)cc1`, the IC50 was 22.2 µM and the concentration for an effect of 90% (IC90) stood at 36 µM.

Consider `O=C(COC(=O)c1ccccc1Br)Nc1ccccc1F`, for which the IC90 is above 100 µM.

With `O=C(CCc1ccc(Oc2cc([N+](=O)[O-])cc([N+](=O)[O-])c2)cc1)N1CCCCCC1`, the 50% inhibitory concentration (IC50) is 7.53 µM, the IC90 is 15.6 µM and the CC50 stood at 37.2 µM.

In the case of `O=C(c1ccccc1)C1CN(Cc2ccccc2)CCC1(O)c1ccccc1` (stereo not drawn), the IC50 is 24.8 µM and the IC90 came out at 28.2 µM.

`COc1ccc(/C=C/C(=O)Oc2ccc(C)c(C)c2)cc1OC`: the IC50 was 9.43 µM and the IC90 was above 100 µM.

On to `CCOC(=O)c1ccc(COC(=O)c2ccc(-c3nnc(-c4ccccc4)o3)cc2)o1`, for which the half-inhibitory concentration (IC50) was 23.4 µM, the 90% effect concentration (IC90) was above 100 µM and the CC50 was above 40 µM.

`Cc1nc(SCc2ccccc2F)c2oc3ccccc3c2n1` came in with a concentration for an effect of 90% (IC90) above 100 µM.

Take `CCOC(=O)CSc1nnc(-c2cc(OC)c(OC)c(OC)c2)o1`: the 50% inhibitory concentration (IC50) was 1.62 µM and the IC90 was 4.38 µM.

For `O=C1C=CC(O)(c2cc(=O)c3c(O)cc(O)cc3o2)C=C1`, the IC50 is 3.87 µM, the IC90 was 6.68 µM and the CC50 was 6.81 µM.

`CCN1CCN(Cc2ccc(NC(=O)c3ccc(C)c(NC(=O)c4c[nH]c5cc(C(F)(F)F)ccc5c4=O)c3)cc2C(F)(F)F)CC1`: the half-maximal inhibitory concentration (IC50) is 3.86 µM, the IC90 came out at 4.72 µM and the cytotoxic concentration (CC50) worked out at 3.28 µM.

With `CCOC(=O)c1cc(COc2cc(Cl)cc(Cl)c2)on1`, the 50% inhibitory concentration (IC50) was 3.01 µM and the IC90 is 21.6 µM.

For `O=C(Nc1cc(Cl)ccc1O)c1cc2n(n1)C(C(F)(F)F)CC(c1ccc3c(c1)OCO3)N2` (stereo not drawn), the CC50 is above 40 µM.

As to `CC(C)(C)c1ccc(C(=O)NCCCN2CCN(CCCNC(=O)c3ccc(C(C)(C)C)cc3)CC2)cc1`, the 50% inhibitory concentration (IC50) was 5.43 µM, the IC90 is 7.12 µM and the 50% cytotoxic concentration (CC50) is 27.4 µM.

As for `N#CC1=C(N)NC(SCC(=O)c2ccccc2)=C(C#N)C12CCCC2`, the 50% inhibitory concentration (IC50) is 7.73 µM and the 90% effect concentration (IC90) is above 100 µM.

Regarding `COC(=O)C(C)Oc1ccc(-c2nccc(-c3cccs3)n2)cc1` (stereo not drawn), the 50% inhibitory concentration (IC50) is 0.829 µM and the 90% effect concentration (IC90) was 2.74 µM.

`CCCCOC(=O)c1ccc(OC(=O)c2cccnc2)cc1`: the 50% inhibitory concentration (IC50) was 7.04 µM, the IC90 was above 100 µM and the CC50 is above 40 µM.

In the case of `CSc1ccccc1NC(=O)c1cc(C2CC2)on1`, the IC50 was 23.6 µM and the IC90 was found to be 26.7 µM.

On to `O=C(CCNc1ccc(Cl)c(C(F)(F)F)c1)c1ccco1`, for which the IC50 was 49.3 µM and the IC90 was above 100 µM.

On to `COc1cc(/C=C/C(=O)c2ccc(F)cc2)cc(OC)c1OC`, for which the IC50 was 4.93 µM, the IC90 was 7.36 µM and the 50% cytotoxic concentration (CC50) is 21.1 µM.

Regarding `FC(F)(F)c1ccc(CN2C[C@@H]3C(c4ccc(Cl)nc4)C4(c5cccnc5)CC3(C4)[C@H]2c2ccccc2)cc1` (stereo partly drawn), the IC50 is 8.98 µM, the concentration for an effect of 90% (IC90) was determined as 18 µM and the CC50 is above 40 µM.

`O=C(c1c[nH]c(C(=O)N2CCN(c3ccccc3F)CC2)c1)c1cccc(Cl)c1Cl` displayed a CC50 of 16.9 µM.

As to `Cc1nn(Cc2ccccc2Cl)c2sc(C(=O)NCc3ccc4c(c3)OCO4)cc12`, the IC50 was 5.45 µM and the IC90 was 7.16 µM.

On to `O=C(Nc1nccs1)c1ccccn1`, for which the IC50 is 6.09 µM, the IC90 was found to be 15.7 µM and the CC50 was above 40 µM.

Consider `O=C(Nc1nc2ccccc2[nH]1)c1ccc(Cl)c([N+](=O)[O-])c1`, for which the half-inhibitory concentration (IC50) was 13.7 µM, the 90% effect concentration (IC90) was above 100 µM and the CC50 was above 40 µM.

For the compound `Cn1cnc(Sc2ncnc3nc[nH]c23)c1[N+](=O)[O-]`, the IC50 is 8.98 µM and the concentration for an effect of 90% (IC90) was determined as 16.1 µM.

With `Cc1nc(-c2ccccn2)nc(SCC(=O)c2ccc(F)cc2)c1Cl`, the IC50 was 7.37 µM, the 90% effect concentration (IC90) was 13.8 µM and the CC50 was above 40 µM.

In the case of `CCC(CO)[n+]1c(C)cc(/C=C2\Sc3ccccc3N2Cc2ccccc2)cc1C` (stereo not drawn), the IC50 is 1.3 µM, the 90% effect concentration (IC90) amounted to 1.95 µM and the CC50 is 23.2 µM.

For the compound `O=C(Oc1ccccc1Cl)c1ccc(N2CCOCC2)c([N+](=O)[O-])c1`, the IC50 is 4.09 µM and the concentration for an effect of 90% (IC90) came out at 11.1 µM.

On to `CN1CCN(c2oc(COc3ccc(-c4ccccc4)cc3)nc2C#N)CC1`, for which the IC50 is 15.4 µM, the concentration for an effect of 90% (IC90) was found to be 28.7 µM and the CC50 was above 40 µM.

The compound `COc1ccc(N=Cc2c(O)c3ccccc3oc2=O)cc1` returned an IC90 above 100 µM and a CC50 above 40 µM.

Take `CCOC(=O)C1(CCc2ccccc2)CCN(Cc2ccccn2)CC1`: the IC50 was 19.7 µM and the concentration for an effect of 90% (IC90) is above 100 µM.

With `Brc1ccc(CSc2ncn[nH]2)cc1`, the IC50 is 46.2 µM, the IC90 is above 100 µM and the CC50 is above 40 µM.

As to `CSc1ccc(/C=C/C(=O)c2ccc(NC(=O)Cc3ccccc3)cc2)cc1`, the half-inhibitory concentration (IC50) is 4.66 µM, the IC90 is above 100 µM and the CC50 is above 40 µM.

For `Nc1nc(CCOc2ccc(F)cc2)cs1`, the IC50 is 22.4 µM and the IC90 is above 100 µM.

Take `NC1=NC[C@H](Cc2ccc(O)cc2)N1CCC12CC3CC(CC(C3)C1)C2`: the IC50 was 5.85 µM and the IC90 came out at 9.05 µM.

Turning to `COc1cccc(/C=C2\Sc3ccc(C(=O)NCc4cccnc4)cc3N(C)C2=O)c1`, the 50% inhibitory concentration (IC50) was 2.83 µM, the IC90 stood at 6.21 µM and the 50% cytotoxic concentration (CC50) is above 40 µM.

For the compound `COc1ccc(N=C2C(=O)Nc3ccccc32)cc1`, the IC90 is above 100 µM.

For `O=C(c1ccc2c(c1)[nH]c(=S)n1c3ccccc3nc21)N1CCN(c2cccc(Cl)c2)CC1`, the concentration for half-maximal inhibition (IC50) was 4.39 µM, the IC90 was 32.3 µM and the CC50 amounted to 26.5 µM.

As for `COc1cc(CNCc2ccccn2)ccc1OCc1ccc(Cl)c(Cl)c1`, the half-inhibitory concentration (IC50) is 5.63 µM, the IC90 is 7.7 µM and the CC50 is above 40 µM.

`Cc1ccc(N=C/C(C(=O)C(F)(F)F)=C(\O)c2ccco2)cc1Cl` returned an IC90 above 100 µM.

In the case of `Nc1c2c(nc3ccc(Br)cc13)N(C1CCCCC1)CC2`, the half-inhibitory concentration (IC50) was 8.28 µM, the 90% effect concentration (IC90) came out at 11.1 µM and the CC50 was above 40 µM.

For the compound `O=C(Nc1nnc(-c2ccccc2)o1)c1ccc(Cl)cc1`, the IC50 was below 0.195 µM, the IC90 was 95.1 µM and the CC50 was 34.3 µM.
